These results are taken from publication PMC11773334, “Preparation and pharmacokinetic evaluation of a sertraline-methylpropyphenazone prodrug: a comparative metabolic study on the plasma and brain tissues of rats using LC-MS/MS analysis” (RSC Advances, 2025).

The conditions of data set [1]: cited from earlier work.
A short description of data set [2]: Stability of standard solutions under storage conditions. The settings on record: room temperature for 6 h and 4 °C for 12 h. Format: physicochemical. The method, then: (§1) The linearity of the targeted analytes was evaluated at six concentration levels spanning the range of 25–2000 ng mL^−1, and the calibration parameters were calculated. The method's accuracy was determined by calculating the estimated value for each QC sample compared with the actual concentration. The precision was assessed by analysis of QC samples at different concentrations (25.0, 500.0, and 2000.0 ng mL^−1) on separate days. The lowest point in the calibration curve was defined as the lower limit of quantification (LLOQ), which was determined to be at an acceptable accuracy and precision. The recovery of the extractions was evaluated by comparing the areas under the peak of the extracted samples with a non-extracted standard solution. Also, the matrix effect was evaluated by comparing the plasma sample spiked with the analyte with corresponding standard solutions at the same concentrations. Finally, the stability of the sample was investigated at three concentration levels, applying the same chromatographic conditions. The stability tests included long-term, short-term, and freeze-thaw stability.
Standard solutions were maintained at room temperature for 6 h and 4 °C for 12 h, and then analyzed using the developed method. […] Recoveries remained above 89%, and the standard deviation (SD%) values were below 3%, as detailed in Table 3.

Data set [3] in a line: QC sample stability in spiked rat plasma. The data set is classed as in vitro ADME. As to the method:
The working solutions were prepared separately for obtaining a 100 μg mL^−1 concentration. Calibration standards were generated from the working solution by spiking control plasma (100 μL) with a standard mixture to get the final concentrations: 25, 100, 250, 500, 1000, and 2000 ng mL^−1 plasma of each analyte. […]
Solid-phase extraction (SPE) was performed on the calibration standards prepared in plasma, quality control (QC) samples, rat plasma, and brain homogenate samples using Chromabond ® C8-100 mg columns (Macherey Nagel, Düren, Germany). […] The SPE column was filled with 25 μL of 0.1% aqueous ammonia solution, 100 μL plasma or brain homogenate, and 50 μL IS (20 ng μL^−1). […] The eluant was dried with nitrogen gas at room temperature, then reconstituted in 300 μL methanol, vortex, and transferred to a 0.9 mL total recovery autosampler vial, and dried with nitrogen gas.
as §1

The next data set deals with rat serotonin (ST). The experiment in a line: Analysis of serotonin in brain homogenate (ELISA sandwich kit). The settings on record: SER: within 1 to 3 h after oral administration, Fig. 6.
The nature of data set [4]: Concentration in rat brain homogenate after oral administration (LC-MS/MS). The data set is classed as in vivo, Wistar rats. The settings on record: 0.5 to 192 h after oral SER-MP. The method, then:
Sildenafil was used as an internal standard (IS). […] The gradient program was configured as follows: 68% A from 0 to 2 min, raised to 96% A at 4.0 min, sustained at 96% A until 13 min, and then reverting back to 68% A at 13.1 min. […] The equilibration duration was 7.0 min. The sample injection volume was 5 μL.

Data set [5] is described as follows: Rat plasma pharmacokinetics after oral administration (LC-MS/MS, noncompartmental model).
Method: Sildenafil was used as an internal standard (IS). […] The MS conditions were set as follows: the ESI temperature was 330 °C, nitrogen gas flow rate was 11 L min^−1, nebulizer pressure was 35 psi, and capillary voltage was 4000 V. The MS settings were optimized for each compound, including the fragmentor voltage, dwell time (sec), and collision energy voltage. […] A gradient elution program was applied using a mobile phase composed of methanol (solvent A) and 0.7 g L^−1 ammonium acetate trihydrate in water with 0.1% formic acid (solvent B). […] The mobile phase was pumped at a flow rate of 0.4 mL min^−1. The equilibration duration was 7.0 min. The sample injection volume was 5 μL. The total running time for the analysis was 20 min. […] The SPE column was conditioned with 1 mL methanol and 2 mL of 0.1% aqueous ammonia solution. […] The SPE column was gently clicked to mix the solution, then allowed to elute just below the stationary phase surface before being trapped for 1 min in the stationary phase. The column was then washed with 1 mL of 0.1% ammonia solution, forcing nitrogen to eject water from the SPE column. The column was connected to a new port via a clean test tube, and the analytes were eluted using 3 mL ethyl acetate: n-hexane (2 : 1, v/v) and 1 mL methanol. […] The residue was dissolved in 50 μL methanol, and a 5 μL volume was injected for LC-MS/MS analysis. […] The results were expressed as the mean ± SD. The evaluated parameters included Cmax (maximum concentration), Tmax (time to reach Cmax), t1/2 (half-life), Ke (elimination rate constant), AUC (area under the concentration–time curve), AUMC (area under the first moment curve), and MRT (mean residence time). The data were analyzed using Kinetica® software, employing a noncompartmental analysis approach. […] The pharmacokinetic parameters between the groups were compared using an unpaired two-tailed t-test. Statistical significance was defined as P < 0.05.
The mark [6] stands for this setting: rat plasma, oral SER-MP 16.0 mg kg^−1 (equimolar to SER dose), analyte SER-MP or released metabolite.

What is called half-life is the time in which the quantity being followed falls by half. As a reminder, the Cmax is the maximum level reached in the sampled fluid or tissue.

Method for rat serotonin (ST): Wistar rats weighing 250 ± 30 g were included in the study. […] Phosphate-buffered saline (PBS) was utilized as a matrix to homogenize the brain samples. Both the brain and blood samples were frozen at −80 °C until their analysis.
An enzyme-linked immunosorbent assay (ELISA) sandwich kit was used in this study as it is known that it can accurately quantify rat serotonin (ST) in serum, plasma, cell culture supernatants, ascites, tissue homogenates, and other biological fluids. In the assay, first the plate was pre-coated with a rat ST antibody. When ST is present in the sample, it binds to the antibodies on the wells. Next, a biotinylated rat ST antibody was added, which binds to the ST in the sample. Streptavidin-HRP was then added, binding to the biotinylated ST antibody. After incubation, the unbound Streptavidin-HRP was washed away. […] The reaction was terminated by adding an acidic stop solution, and then the absorbance was measured at 450 nm.

Take `N[C@H]1CC[C@@H](c2ccc(Cl)c(Cl)c2)c2ccccc21` [N-desmethyl-SER, N-Desmethyl-sertraline]: the “Half-life (t1/2)” value in data set [1] (in vivo) is 66 to 80 h.

On to `CN[C@H]1CC[C@@H](c2ccc(Cl)c(Cl)c2)c2ccccc21` [SER, (1S,4S)-4-(3,4-dichlorophenyl)-N-methyl-1,2,3,4-tetrahydronaphthalen-1-amine], for which, in data set [2], the “Stability of standard solutions (change in peak area)” value was “No significant changes in peak area values”. In data set [1], the “Fraction excreted as metabolites” value is given as “About 40%” and the “Fraction in plasma bound to proteins” value is “About 98%”. In addition, in data set [3] (50.0 ng mL^−1), the “Average recovery (%) ± SD, Autosampler (25 °C/24 h)” value is on record as 92.98 ± 1.35% and the “Average recovery (%) ± SD, Freeze-thaw (−20 °C/3 cycles)” value (shortened to “Average recovery (%) ± SD, Freeze-thaw”) was determined as 91.04 ± 2.95%. Further, in data set [3] (500.0 ng mL^−1), the “Average recovery (%) ± SD, Autosampler (25 °C/24 h)” value was found to be 93.23 ± 0.98% and the “Average recovery (%) ± SD, Freeze-thaw” value stood at 90.68 ± 3.92%. Moreover, in data set [3] (2000.0 ng mL^−1), the “Average recovery (%) ± SD, Autosampler (25 °C/24 h)” value turned out to be 91.15 ± 2.20% and the “Average recovery (%) ± SD, Freeze-thaw” value turned out to be 89.23 ± 4.00%.

As for `CC(C)c1c(CN(C)C2CCC(c3ccc(Cl)c(Cl)c3)c3ccccc32)n(C)n(-c2ccccc2)c1=O` (stereo not shown) [SER-MP, sertraline-methylpropyphenazone], the “Course of serotonin level in the brain after a single oral dose” value in the data set on rat serotonin (ST) was “approximately steady level”. Further, the “Stability of standard solutions (change in peak area)” value in data set [2] was “No significant changes in peak area values”. In addition, the “Concentration of SER-MP in rat brain” value in data set [4] was roughly 100 ng/g. In data set [3] (50.0 ng mL^−1), the “Average recovery (%) ± SD, Autosampler (25 °C/24 h)” value worked out at 97.45 ± 0.78% and the “Average recovery (%) ± SD, Freeze-thaw” value came out at 95.70 ± 1.76%. Moreover, in data set [3] (500.0 ng mL^−1), the “Average recovery (%) ± SD, Autosampler (25 °C/24 h)” value was 98.76 ± 1.03% and the “Average recovery (%) ± SD, Freeze-thaw” value turned out to be 96.84 ± 0.68%. For the same molecule, in data set [3] (2000.0 ng mL^−1), the “Average recovery (%) ± SD, Autosampler (25 °C/24 h)” value came out at 98.88 ± 0.80% and the “Average recovery (%) ± SD, Freeze-thaw” value came out at 94.99 ± 2.09%. The half-life in data set [5] (Wistar, rat, plasma, po, 16 mg kg^−1, t1/2 (half-life), rat plasma, oral SER-MP 16.0 mg kg^−1 (equimolar to SER dose), analyte SER-MP or released metabolite) is 50 h. In addition, the maximum concentration (Cmax) in data set [5] (Wistar, rat, plasma, po, 16 mg/kg, Cmax (maximum plasma concentration), rat plasma, oral SER-MP 16.0 mg kg^−1 (equimolar to SER dose), analyte SER-MP or released metabolite) stood at 192 ng/mL. Besides, in data set [5] (setting [6]), the “Cmax (maximum plasma concentration)” value worked out at 192.11 ng/mL, the Total clearance rate came to 4.32 mL/day/kg and the “t1/2 (half-life)” value was 49.97 h.

For `CC(C)c1c(CN[C@H]2CC[C@@H](c3ccc(Cl)c(Cl)c3)c3ccccc32)n(C)n(-c2ccccc2)c1=O` [nor-methyl-SER-MP], in data set [5] (rat plasma after oral SER-MP, major metabolite), the “Time retained in the plasma” value is on record as 195 h.

As for `CC(C)c1c(CO)n(C)n(-c2ccccc2)c1=O` [3-OHMP, 3-hydroxymethylpropyphenazone], the entries for the “Average recovery (%) ± SD, Autosampler (25 °C/24 h)” value in data set [3] (50.0 ng mL^−1), in data set [3] (500.0 ng mL^−1) and in data set [3] (2000.0 ng mL^−1) were 96.80 ± 0.98%, 96.55 ± 1.20% and 95.24 ± 2.56%, respectively. The “Average recovery (%) ± SD, Freeze-thaw” value in data set [3] (50.0 ng mL^−1) is recorded as 94.39 ± 2.98%; in data set [3] (500.0 ng mL^−1), 95.47 ± 1.57%; in data set [3] (2000.0 ng mL^−1), 95.73 ± 1.93%.
